Measured values published in the supplement of paper PMC4862054.

What was measured:
Settings in all cases: incubation time: 72 h
[1] = test system: CAL-85-1; assay: normalised viability (% of control), CellTiter-Blue; higher = more viable cells (about 100 = DMSO control)
Experimental: (§1)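 DSRT, CellTiter-Blue viability, 72 h incubation. Signal is normalised to DMSO and benzethonium chloride controls. Value is the normalised response at dose 7.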

[2] = test system: HDQ-P1; assay: as above
Experimental: as §1

[3] = test system: MDA-MB-453; assay: as above
Experimental: as §1

[4] = test system: DU-4475; assay: as above
Experimental: as §1

[5] = test system: CAL-148; assay: as above
Experimental: as §1

[6] = test system: CAL-51; assay: as above
Experimental: as §1

[7] = test system: MDA-MB-468; assay: normalised response (% of control), CellTiter-Glo; higher = more viable cells (100 = DMSO, 0 = benzethonium chloride kill control)
Method in brief: (§2)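 Breast cancer cell lines (20 µl suspension) were seeded into 384-well plates holding compound at 5 concentrations in 10-fold steps over a compound-specific 10,000-fold range, then incubated 72 h. CellTox Green fluorescence (485/520 nm) was read first, then CellTiter-Glo luminescence after 10 min at room temperature. Each plate was normalised to 0.1 % DMSO (100) and a positive kill control (0). Each value is the normalised signal at a single concentration of the series.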

[8] = test system: SK-BR-3; assay: as above
Method in brief: as §2

[9] = test system: CAL-85-1; assay: as above
Method in brief: as §2

[10] = test system: BT-549; assay: as above
Method in brief: as §2

[11] = test system: MCF-10A; assay: as above
Method in brief: as §2

[12] = test system: HDQ-P1; assay: as above
Method in brief: as §2

[13] = test system: MFM-223; assay: as above
Method in brief: as §2

[14] = test system: CAL-120; assay: as above
Method in brief: as §2

[15] = test system: HCC1599; assay: as above
Method in brief: as §2

[16] = test system: MDA-MB-453; assay: as above
Method in brief: as §2

[17] = test system: Hs578T; assay: as above
Method in brief: as §2

[18] = test system: MDA-MB-231; assay: as above
Method in brief: as §2

[19] = test system: BT-474; assay: as above
Method in brief: as §2

[20] = test system: HCC1937; assay: as above
Method in brief: as §2

[21] = test system: DU-4475; assay: as above
Method in brief: as §2

[22] = test system: CAL-148; assay: as above
Method in brief: as §2

[23] = test system: CAL-51; assay: as above
Method in brief: as §2

[24] = test system: HCC1143; assay: as above
Method in brief: as §2

[25] = test system: MDA-MB-436; assay: as above
Method in brief: as §2

SMILES	normalised viability [1]	normalised viability [2]	normalised viability [3]	normalised viability [4]	normalised viability [5]	normalised viability [6]	normalised response [7]	normalised response [8]	normalised response [9]	normalised response [10]	normalised response [11]	normalised response [12]	normalised response [13]	normalised response [14]	normalised response [15]	normalised response [16]	normalised response [17]	normalised response [18]	normalised response [19]	normalised response [20]	normalised response [21]	normalised response [22]	normalised response [23]	normalised response [24]	normalised response [25]
O=C(CCBr)N1CCN(C(=O)CCBr)CC1 [Pipobroman] (1000 nM)	88.8%	91.2%	93.4%	98.1%	95.5%	114%	99.6%	106%	105%	102%	97%	97.2%	104%	99.3%	109%	101%	108%	99.5%	93.9%	103%	95.8%	101%	88.8%	112%	96.6%
CO[C@@H](C(=O)N1Cc2[nH]nc(NC(=O)c3ccc(N4CCN(C)CC4)cc3)c2C1)c1ccccc1 [Danusertib] (1000 nM)	50.8%	45.6%	41.7%	46.3%	47.2%	44.9%	33.6%	91.2%	90.8%	51.4%	46.2%	82.5%	43.2%	75.7%	105%	156%	81.6%	74.7%	75.6%	89.3%	83.7%	72.2%	59.9%	75.1%	80.9%
COc1ccc(-c2cc3c(C)nc(N)nc3n([C@H]3CC[C@H](OCCO)CC3)c2=O)cn1 (1000 nM)	23.1%	12.2%	7.65%	42.9%	18.1%	12.9%	20.5%	14.2%	20.7%	17.8%	19.5%	21.9%	26.2%	27%	57.1%	12.9%	19.3%	24.7%	34.7%	38.7%	48%	26.2%	10%	21.4%	37.5%
C[C@]12C=CC(=O)C=C1CC[C@@H]1[C@@H]2[C@@H](O)C[C@@]2(C)[C@H]1CC[C@]2(O)C(=O)CO [Prednisolone] (1000 nM)	101%	113%	76.9%	119%	109%	90.3%	121%	90.3%	113%	102%	101%	85.8%	106%	75.2%	109%	98.1%	113%	154%	158%	97.6%	101%	102%	120%	102%	99.7%
O=C1c2c(O)ccc(O)c2C(=O)c2c(NCCNCCO)ccc(NCCNCCO)c21 [Mitoxantrone] (100 nM)	63.4%	74.2%	71.3%	13%	25.1%	31.2%	92.4%	99.2%	101%	90.1%	96.2%	96.4%	99.7%	34.6%	120%	107%	104%	103%	94.3%	97.3%	86.2%	85.6%	93.8%	96%	69.8%
